Data: PMC9952331, “Ethyl Gallate Isolated from Castanopsis cuspidata var. sieboldii Branches Inhibits Melanogenesis and Promotes Autophagy in B16F10 Cells” (Antioxidants, 2023)
pKi: −log10 of the molar value. Values after ≈ are worked out from the molar mass of the structure shown.

What was measured:
[1] = biological target: mushroom tyrosinase; assay: enzyme kinetics with L-DOPA substrate, Lineweaver-Burk plot; IC50 […] also reported; assay type: biochemical
[2] = test system: mushroom tyrosinase; assay: cell-free tyrosinase inhibition assay with L-tyrosine substrate, absorbance at […] nm; assay type: biochemical

Row | pKi [1] | IC50 [2] | Structure (SMILES)
1 | 3.36 | – | CCOC(=O)c1cc(O)c(O)c(O)c1 [Compound 1, ethyl gallate]
2 | – | 30.99 ± 0.86 µg/mL (≈ 176 µM) | O=C1O[C@H]([C@@H](O)CO)C(O)=C1O [ascorbic acid]
